pIC50: −log10 of the molar value. Read-outs that look alike come from different tables or passages of the source.
Assays:
Format in all cases: cell-based
Mycobacterium marinum [1] = test: Anti-biotic assay: M. marinum growth in broth (luminescence); conditions: for activity at 0.411523 µM / activity at 1.23457 µM / activity at 3.7037 µM / activity at 11.1111 µM / activity at 33.3333 µM / activity at 100 µM: 72 h; for IC50: read-out: IC50 Mm in broth (μM)
Procedure: (§1) Since fractions were not weighed individually, the injection mass was used to calculate an average mass per fraction and thus a nominal mass concentration.
Plating bacteria and compounds or fractions was performed analogously to the infection assay described above. Bacteria growth was monitored with the Agilent BioTek H1 plate reader by recording luminescence at 32 °C.
The prepared plates were sealed and stored at 4 °C overnight. On the day of the experiment, nine 10 cm Petri dishes were infected (as described before) and grouped into three pools.

Dictyostelium discoideum = test: Infection assay: growth of the host amoeba D. discoideum (fluorescence) in infection; conditions: for activity at 0.411523 µM / activity at 1.23457 µM / activity at 3.7037 µM / activity at 11.1111 µM / activity at 33.3333 µM / activity at 100 µM: 72 h; for IC50: read-out: IC50 Dd in infection (μM)
Description: as §1

Mycobacterium marinum [2] = test: Infection assay: intracellular M. marinum growth (luminescence) in D. discoideum; conditions: for activity at 0.411523 µM / activity at 1.23457 µM / activity at 3.7037 µM / activity at 11.1111 µM / activity at 33.3333 µM / activity at 100 µM: 72 h; for activity at 0.411523 µM: conc 0.411522634 uM; for activity at 1.23457 µM: conc 1.234567901 uM; for activity at 3.7037 µM: conc 3.703703704 uM; for activity at 11.1111 µM: conc 11.11111111 uM; for activity at 33.3333 µM: conc 33.33333333 uM; for activity at 100 µM: conc 100 uM; for pIC50: interpolated between the two concentrations closest to residual growth 0.5, top concentration 100 μM
Description: as §1

[3] = read-out: mean (normalised M. marinum growth, Mm in broth)
[4] = read-out: median (normalised M. marinum growth, Mm in broth)
[5] = read-out: mean normalized residual growth, Dd in infection
[6] = read-out: median normalized residual growth, Dd in infection
[7] = vehicle control set at 1, read-out: mean normalized residual growth, Mm in infection
[8] = vehicle control set at 1, read-out: median normalized residual growth, Mm in infection

SMILES	activity at 0.411523 µM (Mycobacterium marinum [1]; [3]) [%]	activity at 1.23457 µM (Mycobacterium marinum [1]; [3]) [%]	activity at 3.7037 µM (Mycobacterium marinum [1]; [3]) [%]	activity at 11.1111 µM (Mycobacterium marinum [1]; [3]) [%]	activity at 33.3333 µM (Mycobacterium marinum [1]; [3]) [%]	activity at 100 µM (Mycobacterium marinum [1]; [3]) [%]	activity at 0.411523 µM (Mycobacterium marinum [1]; [4]) [%]	activity at 1.23457 µM (Mycobacterium marinum [1]; [4]) [%]	activity at 3.7037 µM (Mycobacterium marinum [1]; [4]) [%]	activity at 11.1111 µM (Mycobacterium marinum [1]; [4]) [%]	activity at 33.3333 µM (Mycobacterium marinum [1]; [4]) [%]	activity at 100 µM (Mycobacterium marinum [1]; [4]) [%]	activity at 0.411523 µM (Dictyostelium discoideum; [5]) [%]	activity at 1.23457 µM (Dictyostelium discoideum; [5]) [%]	activity at 3.7037 µM (Dictyostelium discoideum; [5]) [%]	activity at 11.1111 µM (Dictyostelium discoideum; [5]) [%]	activity at 33.3333 µM (Dictyostelium discoideum; [5]) [%]	activity at 100 µM (Dictyostelium discoideum; [5]) [%]	activity at 0.411523 µM (Dictyostelium discoideum; [6]) [%]	activity at 1.23457 µM (Dictyostelium discoideum; [6]) [%]	also measured
Oc1cc(O)cc([C@H]2c3c(O)cc(/C=C/c4ccc(O)cc4O)cc3O[C@@H]2c2ccc(O)cc2O)c1 (relative stereo) [Compound 10, (−)-Gnetumontanin A]	111	103	95.3	96.3	99.7	90	116	103	95.2	96.3	97.6	91	126	88.6	59.8	54.4	51.5	6.33	102	97	activity at 3.7037 µM (Dictyostelium discoideum; [6]): 90.5%; activity at 11.1111 µM (Dictyostelium discoideum; [6]): 84.7%; activity at 33.3333 µM (Dictyostelium discoideum; [6]): 80.4%; activity at 100 µM (Dictyostelium discoideum; [6]): 76.2%; IC50 (Dictyostelium discoideum): > 100 µM; activity at 0.411523 µM (Mycobacterium marinum [2]; [7]): 90.6%; activity at 0.411523 µM (Mycobacterium marinum [2]; [8]): 90.5%; activity at 1.23457 µM (Mycobacterium marinum [2]; [7]): 132%; activity at 1.23457 µM (Mycobacterium marinum [2]; [8]): 135%; activity at 3.7037 µM (Mycobacterium marinum [2]; [7]): 120%; activity at 3.7037 µM (Mycobacterium marinum [2]; [8]): 120%; activity at 11.1111 µM (Mycobacterium marinum [2]; [7]): 145%; activity at 11.1111 µM (Mycobacterium marinum [2]; [8]): 152%; activity at 33.3333 µM (Mycobacterium marinum [2]; [7]): 157%; activity at 33.3333 µM (Mycobacterium marinum [2]; [8]): 160%; activity at 100 µM (Mycobacterium marinum [2]; [7]): 41.3%; activity at 100 µM (Mycobacterium marinum [2]; [8]): 59.1%; pIC50 (Mycobacterium marinum [2]): < 4.00
Oc1ccc(C=Cc2cc(O)cc3c2C(c2cc(O)cc(O)c2)C(c2ccc(O)c4c2OC(c2ccc(O)cc2O)C4c2cc(O)cc(O)c2)O3)cc1 (single isomer, unassigned; (-)) [Compound 11, (−)-Gnetuhainin M]	99	108	110	88.7	92.2	86.8	104	107	115	91.1	96.7	83.5	150	115	73.2	64.6	39.6	11.1	87.9	94.4	IC50 (Mycobacterium marinum [1]): > 100 µM; activity at 3.7037 µM (Dictyostelium discoideum; [6]): 85.9%; activity at 11.1111 µM (Dictyostelium discoideum; [6]): 83%; activity at 33.3333 µM (Dictyostelium discoideum; [6]): 90.3%; activity at 100 µM (Dictyostelium discoideum; [6]): 72.8%; IC50 (Dictyostelium discoideum): > 100 µM; activity at 0.411523 µM (Mycobacterium marinum [2]; [7]): 57.2%; activity at 0.411523 µM (Mycobacterium marinum [2]; [8]): 56.8%; activity at 1.23457 µM (Mycobacterium marinum [2]; [7]): 112%; activity at 1.23457 µM (Mycobacterium marinum [2]; [8]): 106%; activity at 3.7037 µM (Mycobacterium marinum [2]; [7]): 127%; activity at 3.7037 µM (Mycobacterium marinum [2]; [8]): 128%; activity at 11.1111 µM (Mycobacterium marinum [2]; [7]): 135%; activity at 11.1111 µM (Mycobacterium marinum [2]; [8]): 123%; activity at 33.3333 µM (Mycobacterium marinum [2]; [7]): 28.9%; activity at 33.3333 µM (Mycobacterium marinum [2]; [8]): 31.3%; activity at 100 µM (Mycobacterium marinum [2]; [7]): -4.28%; activity at 100 µM (Mycobacterium marinum [2]; [8]): 14.1%; pIC50 (Mycobacterium marinum [2]): 4.65
Oc1ccc(/C=C/c2cc(O)c3c(c2)O[C@@H](c2ccc(O)cc2)[C@@H]3c2cc(O)c3c(c2)O[C@@H](c2ccc(O)cc2O)[C@H]3c2cc(O)cc(O)c2)cc1 [Compound 4, (−)-Gnetoline A]	115	113	113	112	110	99.3	112	115	115	116	108	99.5	146	109	106	88.5	79	-10.4	96.5	84.4	IC50 (Mycobacterium marinum [1]): > 100 µM; activity at 3.7037 µM (Dictyostelium discoideum; [6]): 85.1%; activity at 11.1111 µM (Dictyostelium discoideum; [6]): 79.5%; activity at 33.3333 µM (Dictyostelium discoideum; [6]): 79.5%; activity at 100 µM (Dictyostelium discoideum; [6]): 38.1%; IC50 (Dictyostelium discoideum): 66.7 µM; activity at 0.411523 µM (Mycobacterium marinum [2]; [7]): 153%; activity at 0.411523 µM (Mycobacterium marinum [2]; [8]): 139%; activity at 1.23457 µM (Mycobacterium marinum [2]; [7]): 173%; activity at 1.23457 µM (Mycobacterium marinum [2]; [8]): 160%; activity at 3.7037 µM (Mycobacterium marinum [2]; [7]): 176%; activity at 3.7037 µM (Mycobacterium marinum [2]; [8]): 171%; activity at 11.1111 µM (Mycobacterium marinum [2]; [7]): 139%; activity at 11.1111 µM (Mycobacterium marinum [2]; [8]): 135%; activity at 33.3333 µM (Mycobacterium marinum [2]; [7]): 88.4%; activity at 33.3333 µM (Mycobacterium marinum [2]; [8]): 86.1%; activity at 100 µM (Mycobacterium marinum [2]; [7]): 12.2%; activity at 100 µM (Mycobacterium marinum [2]; [8]): 17.7%; pIC50 (Mycobacterium marinum [2]): 4.18
Oc1ccc(/C=C/c2cc(O)c3c(c2)O[C@@H](c2ccc(O)cc2)[C@@H]3c2cc(O)c3c(c2)O[C@H](c2ccc(O)cc2O)[C@H]3c2cc(O)cc(O)c2)cc1 [Compound 5, (−)-Latifolol]	107	108	104	114	95.8	91	106	108	107	116	102	102	112	85.8	91.4	75.1	61	-3.13	93.8	81.7	IC50 (Mycobacterium marinum [1]): > 100 µM; activity at 3.7037 µM (Dictyostelium discoideum; [6]): 79.8%; activity at 11.1111 µM (Dictyostelium discoideum; [6]): 74.5%; activity at 33.3333 µM (Dictyostelium discoideum; [6]): 69%; activity at 100 µM (Dictyostelium discoideum; [6]): 32.8%; IC50 (Dictyostelium discoideum): 66.7 µM; activity at 0.411523 µM (Mycobacterium marinum [2]; [7]): 116%; activity at 0.411523 µM (Mycobacterium marinum [2]; [8]): 112%; activity at 1.23457 µM (Mycobacterium marinum [2]; [7]): 160%; activity at 1.23457 µM (Mycobacterium marinum [2]; [8]): 158%; activity at 3.7037 µM (Mycobacterium marinum [2]; [7]): 192%; activity at 3.7037 µM (Mycobacterium marinum [2]; [8]): 178%; activity at 11.1111 µM (Mycobacterium marinum [2]; [7]): 136%; activity at 11.1111 µM (Mycobacterium marinum [2]; [8]): 125%; activity at 33.3333 µM (Mycobacterium marinum [2]; [7]): 81.5%; activity at 33.3333 µM (Mycobacterium marinum [2]; [8]): 81.6%; activity at 100 µM (Mycobacterium marinum [2]; [7]): 2.94%; activity at 100 µM (Mycobacterium marinum [2]; [8]): 7.57%; pIC50 (Mycobacterium marinum [2]): 4.18

— publication PMC12015462, “Prioritization of novel anti-infective stilbene derivatives by combining metabolomic data organization and a stringent 3R-infection model in a knowledge graph” (RSC Advances, 2025)
